Measurements: patent publication US9546156B2, “N-bicyclic aryl,N'-pyrazolyl urea, thiourea, guanidine cyanoguanidine compounds as TrkA kinase inhibitors” (Array BioPharma Inc., priority 2012, dated 2017)

What was measured:
Assay in all cases: Off-target kinase profiling (KinaseProfiler)
Format in all cases: biochemical
Conditions in all cases: 10 μM, ATP near Km
Met = molecular target: T1, Met (Homo sapiens, UniProt P08581)
T1 construct: purchased Millipore, Inc. (KinaseProfiler service)
Procedure: (§1) A representative compound (Example 16) of the invention was tested for off-target kinase activity at a concentration of 10 μM by Millipore, Inc. in their KinaseProfiler™ service against all the kinases available in their full kinase panel. The compound was run in duplicate at a concentration of ATP near the Km for each individual kinase according to Millipore's specifications. The results are shown in Table B. Data are reported as percent of control (POC) and are the average of the two replicates.

Abl2 = molecular target: T2, Abl2 (Homo sapiens, UniProt P42684)
T2 construct: purchased Millipore, Inc. (KinaseProfiler service)
Procedure: as §1

mTOR/FKBP12 = molecular target: T3, mTOR/FKBP12 (Homo sapiens, UniProt P42345)
T3 construct: purchased Millipore, Inc. (KinaseProfiler service)
Procedure: as §1

Tie2 = molecular target: T4, Tie2 (Homo sapiens, UniProt Q02763)
T4 construct: purchased Millipore, Inc. (KinaseProfiler service)
Procedure: as §1

CK1gamma3 = molecular target: T5, CK1gamma3 (Homo sapiens, UniProt Q9Y6M4)
T5 construct: purchased Millipore, Inc. (KinaseProfiler service)
Procedure: as §1

Flt1 = molecular target: T6, Flt1 (Homo sapiens, UniProt P17948)
T6 construct: purchased Millipore, Inc. (KinaseProfiler service)
Procedure: as §1

JNK1alpha1 = molecular target: T7, JNK1alpha1 (Homo sapiens, UniProt P45983)
T7 construct: purchased Millipore, Inc. (KinaseProfiler service)
T7 sequence (P45983 1-384 isoform P45983-2): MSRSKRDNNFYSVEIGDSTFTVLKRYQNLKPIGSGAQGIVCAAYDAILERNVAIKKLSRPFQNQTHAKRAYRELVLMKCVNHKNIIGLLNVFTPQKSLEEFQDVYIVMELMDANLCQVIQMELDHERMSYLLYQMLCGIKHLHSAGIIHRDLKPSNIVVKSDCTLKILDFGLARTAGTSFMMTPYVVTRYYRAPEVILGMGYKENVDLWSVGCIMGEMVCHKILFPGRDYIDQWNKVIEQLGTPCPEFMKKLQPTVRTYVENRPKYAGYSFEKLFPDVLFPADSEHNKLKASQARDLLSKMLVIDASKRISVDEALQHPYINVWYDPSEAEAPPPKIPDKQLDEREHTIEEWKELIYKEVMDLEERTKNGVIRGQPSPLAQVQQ
Procedure: as §1

NEK11 = molecular target: T8, NEK11 (Homo sapiens, UniProt Q8NG66)
T8 construct: purchased Millipore, Inc. (KinaseProfiler service)
Procedure: as §1

MEK1 = molecular target: T9, MEK1 (Homo sapiens, UniProt Q02750)
T9 construct: purchased Millipore, Inc. (KinaseProfiler service)
Procedure: as §1

SRPK2 = molecular target: T10, SRPK2 (Homo sapiens, UniProt P78362)
T10 construct: purchased Millipore, Inc. (KinaseProfiler service)
Procedure: as §1

BrSK2 = molecular target: T11, BrSK2 (Homo sapiens, UniProt Q8IWQ3)
T11 construct: purchased Millipore, Inc. (KinaseProfiler service)
Procedure: as §1

MRCKalpha = molecular target: T12, MRCKalpha (Homo sapiens, UniProt Q5VT25)
T12 construct: purchased Millipore, Inc. (KinaseProfiler service)
T12 sequence (Q5VT25 whole entry): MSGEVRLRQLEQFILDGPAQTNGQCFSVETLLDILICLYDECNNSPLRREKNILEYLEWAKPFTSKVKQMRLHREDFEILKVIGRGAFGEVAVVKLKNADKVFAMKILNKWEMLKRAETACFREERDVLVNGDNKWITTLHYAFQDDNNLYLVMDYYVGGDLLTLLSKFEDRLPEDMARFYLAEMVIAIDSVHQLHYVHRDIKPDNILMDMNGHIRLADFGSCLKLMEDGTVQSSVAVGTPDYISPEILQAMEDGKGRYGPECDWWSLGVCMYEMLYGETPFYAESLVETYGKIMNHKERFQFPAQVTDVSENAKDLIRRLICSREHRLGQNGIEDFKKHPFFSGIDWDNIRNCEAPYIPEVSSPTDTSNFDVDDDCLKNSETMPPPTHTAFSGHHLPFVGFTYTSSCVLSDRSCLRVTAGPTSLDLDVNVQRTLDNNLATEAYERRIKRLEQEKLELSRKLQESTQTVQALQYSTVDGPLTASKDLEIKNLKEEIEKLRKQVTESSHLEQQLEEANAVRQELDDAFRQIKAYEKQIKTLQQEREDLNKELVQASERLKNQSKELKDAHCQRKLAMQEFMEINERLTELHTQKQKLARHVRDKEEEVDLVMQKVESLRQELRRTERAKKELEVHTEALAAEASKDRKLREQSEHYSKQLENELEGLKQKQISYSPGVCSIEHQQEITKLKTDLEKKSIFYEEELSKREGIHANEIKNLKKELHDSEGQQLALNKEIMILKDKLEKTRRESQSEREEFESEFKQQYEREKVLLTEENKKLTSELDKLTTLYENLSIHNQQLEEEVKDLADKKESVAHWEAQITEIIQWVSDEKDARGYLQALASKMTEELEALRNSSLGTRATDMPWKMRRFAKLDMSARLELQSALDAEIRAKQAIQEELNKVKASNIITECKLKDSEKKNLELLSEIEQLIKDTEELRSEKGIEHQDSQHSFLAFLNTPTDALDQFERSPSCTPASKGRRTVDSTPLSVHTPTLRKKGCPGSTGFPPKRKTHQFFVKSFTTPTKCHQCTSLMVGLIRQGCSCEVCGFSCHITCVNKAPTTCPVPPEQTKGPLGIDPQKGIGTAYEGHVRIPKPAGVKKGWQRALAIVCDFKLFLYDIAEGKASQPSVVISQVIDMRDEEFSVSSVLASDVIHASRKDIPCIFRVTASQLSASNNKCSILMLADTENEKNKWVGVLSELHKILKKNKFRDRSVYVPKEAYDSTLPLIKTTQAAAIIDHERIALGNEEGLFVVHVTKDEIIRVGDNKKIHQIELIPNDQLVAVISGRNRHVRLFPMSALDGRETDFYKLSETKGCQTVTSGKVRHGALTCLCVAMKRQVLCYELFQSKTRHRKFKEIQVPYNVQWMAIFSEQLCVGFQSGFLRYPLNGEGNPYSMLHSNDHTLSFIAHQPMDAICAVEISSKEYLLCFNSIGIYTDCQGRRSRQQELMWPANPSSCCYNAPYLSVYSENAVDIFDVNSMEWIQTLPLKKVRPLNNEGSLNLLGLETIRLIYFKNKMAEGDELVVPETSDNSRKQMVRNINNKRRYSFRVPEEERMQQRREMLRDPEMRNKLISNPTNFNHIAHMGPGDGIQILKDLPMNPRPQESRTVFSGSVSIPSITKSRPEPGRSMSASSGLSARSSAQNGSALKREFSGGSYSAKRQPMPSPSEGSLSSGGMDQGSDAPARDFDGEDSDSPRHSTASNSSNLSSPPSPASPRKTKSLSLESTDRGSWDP
Procedure: as §1

Pim-1 = molecular target: T13, Pim-1 (Homo sapiens, UniProt P11309)
T13 construct: purchased Millipore, Inc. (KinaseProfiler service)
Procedure: as §1

IR = molecular target: T14, IR (Homo sapiens, UniProt P06213)
T14 construct: purchased Millipore, Inc. (KinaseProfiler service)
Procedure: as §1

IGF-1R Activated = molecular target: T15, IGF-1R Activated (Homo sapiens, UniProt P08069)
T15 construct: purchased Millipore, Inc. (KinaseProfiler service)
T15 sequence (P08069 959-1367 limits assumed): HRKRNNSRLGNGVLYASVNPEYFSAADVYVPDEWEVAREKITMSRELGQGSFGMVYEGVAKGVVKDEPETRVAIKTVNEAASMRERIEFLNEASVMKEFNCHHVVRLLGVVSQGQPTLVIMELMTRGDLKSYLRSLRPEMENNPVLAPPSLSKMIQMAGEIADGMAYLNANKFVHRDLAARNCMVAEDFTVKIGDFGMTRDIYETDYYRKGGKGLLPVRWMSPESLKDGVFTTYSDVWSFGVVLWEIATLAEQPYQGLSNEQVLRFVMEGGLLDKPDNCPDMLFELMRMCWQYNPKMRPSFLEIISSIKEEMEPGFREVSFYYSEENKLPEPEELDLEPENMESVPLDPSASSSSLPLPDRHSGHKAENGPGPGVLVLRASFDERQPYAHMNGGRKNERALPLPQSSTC
Procedure: as §1

ERK2 = molecular target: T16, ERK2 (Homo sapiens, UniProt P28482)
T16 construct: purchased Millipore, Inc. (KinaseProfiler service)
Procedure: as §1

LKB1 = molecular target: T17, LKB1 (Homo sapiens, UniProt Q15831)
T17 construct: purchased Millipore, Inc. (KinaseProfiler service)
Procedure: as §1

MKNK2 = molecular target: T18, MKNK2 (Homo sapiens, UniProt Q9HBH9)
T18 construct: purchased Millipore, Inc. (KinaseProfiler service)
T18 sequence (Q9HBH9 whole entry): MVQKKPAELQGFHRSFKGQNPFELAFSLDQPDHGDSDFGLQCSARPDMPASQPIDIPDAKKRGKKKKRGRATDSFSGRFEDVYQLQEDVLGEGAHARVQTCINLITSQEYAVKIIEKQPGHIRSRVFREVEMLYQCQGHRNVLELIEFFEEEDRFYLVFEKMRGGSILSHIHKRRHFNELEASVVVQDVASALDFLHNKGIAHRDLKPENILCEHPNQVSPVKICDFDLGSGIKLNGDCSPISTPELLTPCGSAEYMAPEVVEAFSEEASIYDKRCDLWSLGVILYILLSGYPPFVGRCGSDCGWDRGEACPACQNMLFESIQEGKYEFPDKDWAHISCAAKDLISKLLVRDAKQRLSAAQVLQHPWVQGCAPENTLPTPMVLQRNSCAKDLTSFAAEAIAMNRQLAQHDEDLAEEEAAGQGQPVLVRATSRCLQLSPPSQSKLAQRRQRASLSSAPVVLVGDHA
Procedure: as §1

AKT2 = molecular target: T19, AKT2 (Homo sapiens, UniProt P31751)
T19 construct: purchased Millipore, Inc. (KinaseProfiler service)
Procedure: as §1

MAPKAP-K3 = molecular target: T20, MAPKAP-K3 (Homo sapiens, UniProt Q16644)
T20 construct: purchased Millipore, Inc. (KinaseProfiler service)
Procedure: as §1

AMPK(A1/B1/G1) = molecular target: T21, AMPK(A1/B1/G1) (Homo sapiens, UniProt Q13131)
T21 construct: purchased Millipore, Inc. (KinaseProfiler service)
Procedure: as §1

FGFR2 = molecular target: T22, FGFR2 (Homo sapiens, UniProt P21802)
T22 construct: purchased Millipore, Inc. (KinaseProfiler service)
Procedure: as §1

AURKA = molecular target: T23, AURKA (Homo sapiens, UniProt O14965)
T23 construct: purchased Millipore, Inc. (KinaseProfiler service)
Procedure: as §1

PKCbetaII = molecular target: T24, PKCbetaII (Homo sapiens, UniProt P05771)
T24 construct: purchased Millipore, Inc. (KinaseProfiler service)
Procedure: as §1

Plk2 = molecular target: T25, Plk2 (Homo sapiens, UniProt Q9NYY3)
T25 construct: purchased Millipore, Inc. (KinaseProfiler service)
Procedure: as §1

Fms = molecular target: T26, Fms (Homo sapiens, UniProt P07333)
T26 construct: purchased Millipore, Inc. (KinaseProfiler service)
Procedure: as §1

MKK6 = molecular target: T27, MKK6 (Homo sapiens, UniProt P52564)
T27 construct: purchased Millipore, Inc. (KinaseProfiler service)
Procedure: as §1

GRK5 = molecular target: T28, GRK5 (Homo sapiens, UniProt P34947)
T28 construct: purchased Millipore, Inc. (KinaseProfiler service)
Procedure: as §1

eEF-2K = molecular target: T29, eEF-2K (Homo sapiens, UniProt O00418)
T29 construct: purchased Millipore, Inc. (KinaseProfiler service)
Procedure: as §1

PKD1 = molecular target: T30, PKD1 (Homo sapiens, UniProt Q15139)
T30 construct: purchased Millipore, Inc. (KinaseProfiler service)
Procedure: as §1

VRK2 = molecular target: T31, VRK2 (Homo sapiens, UniProt Q86Y07)
T31 construct: purchased Millipore, Inc. (KinaseProfiler service)
Procedure: as §1

Fgr = molecular target: T32, Fgr (Homo sapiens, UniProt P09769)
T32 construct: purchased Millipore, Inc. (KinaseProfiler service)
T32 sequence (P09769 whole entry): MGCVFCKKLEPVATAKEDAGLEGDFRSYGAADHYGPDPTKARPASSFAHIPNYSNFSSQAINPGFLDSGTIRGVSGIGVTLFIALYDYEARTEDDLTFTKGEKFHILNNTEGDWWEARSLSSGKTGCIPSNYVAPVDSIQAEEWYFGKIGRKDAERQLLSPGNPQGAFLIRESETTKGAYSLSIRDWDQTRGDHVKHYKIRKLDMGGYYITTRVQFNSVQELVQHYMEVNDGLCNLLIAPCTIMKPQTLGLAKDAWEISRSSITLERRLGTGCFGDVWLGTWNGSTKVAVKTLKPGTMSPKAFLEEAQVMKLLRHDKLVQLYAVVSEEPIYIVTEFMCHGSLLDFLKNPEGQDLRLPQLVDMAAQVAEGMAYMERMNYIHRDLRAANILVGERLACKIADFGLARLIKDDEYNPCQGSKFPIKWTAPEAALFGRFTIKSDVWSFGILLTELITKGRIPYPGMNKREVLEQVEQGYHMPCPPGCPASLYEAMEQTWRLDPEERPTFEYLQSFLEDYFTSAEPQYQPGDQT
Procedure: as §1

PAK6 = molecular target: T33, PAK6 (Homo sapiens, UniProt Q9NQU5)
T33 construct: purchased Millipore, Inc. (KinaseProfiler service)
Procedure: as §1

CDK9/cyclinT1 = molecular target: T34, CDK9/cyclinT1 (Homo sapiens, UniProt P50750)
T34 construct: purchased Millipore, Inc. (KinaseProfiler service)
Procedure: as §1

CAMK4 = molecular target: T35, CAMK4 (Homo sapiens, UniProt Q16566)
T35 construct: purchased Millipore, Inc. (KinaseProfiler service)
Procedure: as §1

MAP3K5 = molecular target: T36, MAP3K5 (Homo sapiens, UniProt Q99683)
T36 construct: purchased Millipore, Inc. (KinaseProfiler service)
Procedure: as §1

MST1 = molecular target: T37, MST1 (Homo sapiens, UniProt Q13043)
T37 construct: purchased Millipore, Inc. (KinaseProfiler service)
Procedure: as §1

CHK1 = molecular target: T38, CHK1 (Homo sapiens, UniProt O14757)
T38 construct: purchased Millipore, Inc. (KinaseProfiler service)
Procedure: as §1

PKCeta = molecular target: T39, PKCeta (Homo sapiens, UniProt P24723)
T39 construct: purchased Millipore, Inc. (KinaseProfiler service)
Procedure: as §1

IGF-1R = molecular target: T40, IGF-1R (Homo sapiens, UniProt P08069)
T40 construct: purchased Millipore, Inc. (KinaseProfiler service)
T40 sequence (P08069 31-1367): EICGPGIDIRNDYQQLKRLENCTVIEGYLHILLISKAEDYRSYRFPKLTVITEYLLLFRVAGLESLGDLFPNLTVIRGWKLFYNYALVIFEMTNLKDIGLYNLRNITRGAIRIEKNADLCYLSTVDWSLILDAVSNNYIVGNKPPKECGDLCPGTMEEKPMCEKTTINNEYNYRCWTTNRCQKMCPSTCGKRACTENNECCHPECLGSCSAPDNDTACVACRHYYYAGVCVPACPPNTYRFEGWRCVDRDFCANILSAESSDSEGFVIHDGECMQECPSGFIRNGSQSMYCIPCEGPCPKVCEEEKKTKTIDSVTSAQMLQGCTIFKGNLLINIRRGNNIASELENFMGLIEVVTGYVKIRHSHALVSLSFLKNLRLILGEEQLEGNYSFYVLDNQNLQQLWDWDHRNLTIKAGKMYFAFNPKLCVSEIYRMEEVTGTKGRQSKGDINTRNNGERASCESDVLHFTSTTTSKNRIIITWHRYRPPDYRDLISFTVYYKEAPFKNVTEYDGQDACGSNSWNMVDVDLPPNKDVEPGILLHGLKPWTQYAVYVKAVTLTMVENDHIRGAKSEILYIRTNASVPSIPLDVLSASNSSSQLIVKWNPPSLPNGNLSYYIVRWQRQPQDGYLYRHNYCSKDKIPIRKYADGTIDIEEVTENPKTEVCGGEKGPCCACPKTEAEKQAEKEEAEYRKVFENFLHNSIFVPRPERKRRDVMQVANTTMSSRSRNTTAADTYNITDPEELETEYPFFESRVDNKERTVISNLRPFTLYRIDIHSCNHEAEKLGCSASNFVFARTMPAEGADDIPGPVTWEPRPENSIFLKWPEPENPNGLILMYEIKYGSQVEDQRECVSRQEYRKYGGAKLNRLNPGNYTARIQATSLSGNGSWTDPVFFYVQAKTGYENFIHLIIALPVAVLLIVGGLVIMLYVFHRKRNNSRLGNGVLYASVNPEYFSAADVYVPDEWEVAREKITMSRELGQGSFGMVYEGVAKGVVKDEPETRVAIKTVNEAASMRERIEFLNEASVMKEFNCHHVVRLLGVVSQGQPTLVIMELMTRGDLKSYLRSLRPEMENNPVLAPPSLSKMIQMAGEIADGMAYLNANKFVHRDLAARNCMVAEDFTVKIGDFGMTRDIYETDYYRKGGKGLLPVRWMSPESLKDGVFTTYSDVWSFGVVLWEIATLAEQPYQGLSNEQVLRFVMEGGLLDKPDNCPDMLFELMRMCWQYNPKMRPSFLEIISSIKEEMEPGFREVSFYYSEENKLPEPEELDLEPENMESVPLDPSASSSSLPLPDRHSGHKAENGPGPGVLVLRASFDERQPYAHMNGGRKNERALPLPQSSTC
Procedure: as §1

CSK = molecular target: T41, CSK (Homo sapiens, UniProt P41240)
T41 construct: purchased Millipore, Inc. (KinaseProfiler service)
Procedure: as §1

Avg POC (Met): 130 POC
Avg POC (Abl2): 119.5 POC
Avg POC (mTOR/FKBP12): 113 POC
Avg POC (Tie2): 148.5 POC
Avg POC (CK1gamma3): 120 POC
Avg POC (Flt1): 115.5 POC
Avg POC (JNK1alpha1): 111.5 POC
Avg POC (NEK11): 116 POC
Avg POC (MEK1): 114 POC
Avg POC (SRPK2): 105.5 POC
Avg POC (BrSK2): 143 POC
Avg POC (MRCKalpha): 143.5 POC
Avg POC (Pim-1): 124.5 POC
Avg POC (IR): 92 POC
Avg POC (IGF-1R Activated): 101 POC
Avg POC (ERK2): 116.5 POC
Avg POC (LKB1): 111 POC
Avg POC (MKNK2): 118.5 POC
Avg POC (AKT2): 217.5 POC
Avg POC (MAPKAP-K3): 126.5 POC
Avg POC (AMPK(A1/B1/G1)): 134.5 POC
Avg POC (FGFR2): 110 POC
Avg POC (AURKA): 128 POC
Avg POC (PKCbetaII): 106.5 POC
Avg POC (Plk2): 104.5 POC
Avg POC (Fms): 125.5 POC
Avg POC (MKK6): 94.5 POC
Avg POC (GRK5): 108 POC
Avg POC (eEF-2K): 145.5 POC
Avg POC (PKD1): 117.5 POC
Avg POC (VRK2): 110 POC
Avg POC (Fgr): 116 POC
Avg POC (PAK6): 125 POC
Avg POC (CDK9/cyclinT1): 114.5 POC
Avg POC (CAMK4): 127 POC
Avg POC (MAP3K5): 112.5 POC
Avg POC (MST1): 111.5 POC
Avg POC (CHK1): 139.5 POC
Avg POC (PKCeta): 122 POC
Avg POC (IGF-1R): 81 POC
Avg POC (CSK): 132 POC
SMILES: COCc1ccc2cccc(NC(=O)Nc3c(C)c(-c4cnn(C)c4)nn3-c3ccccc3)c2c1 [Example 16, 1-(1′,4-dimethyl-1-phenyl-1H,1′H-[3,4′-bipyrazol]-5-yl)-3-(7-(methoxymethyl)naphthalen-1-yl)urea]
